Like-named read-outs stand apart in the source and are kept apart here. Marks after values point to notes of the source that are not given here.
Test: Solubility of pesticide samples in solvents (equilibration, 25 C, HPLC analysis)
Format: physicochemical
Experimental: The following general method is used to measure the solubility of pesticide samples in solvents. A 2 ml aliquot of solvent is added to a 5 ml volume glass vial. Pesticide is added such that half of the volume of the liquid is filled. The sample is shaken for one minute and left to stand for 24 hours. Samples which have dissolved are refilled with more of the pesticide, shaken and left for a further 24 hours. This process is continued until the samples have equilibrated for three days without the need for further pesticide addition. The samples are then placed in a temperature controlled oven at 25 C for one week prior to analysis by high pressure liquid chromatography. All samples are filtered and centrifuged prior to chromatographic analysis.

[1] = comparison in words, dimethyl lactamide versus the other two solvents
[2] = solvent Solvesso 200ND, 25 C, Table 1
[3] = solvent acetophenone, 25 C, Table 1
[4] = solvent dimethyl lactamide, 25 C, Table 1

Compound	Solubility in Solvesso 200ND (1 week) [% w/w]	Solubility in dimethyl lactamide (1 week) [% w/w]	Solubility in dimethyl lactamide compared with Solvesso 200ND or acetophenone [1]	Solubility in Solvesso 200ND [2]	Solubility in acetophenone [3] [% w/w]	Solubility in dimethyl lactamide [4] [% w/w]	Solubility in dimethyl lactamide compared with Solvesso 200ND or acetophenone	also measured
Fc1ccc([C@]2(Cn3cncn3)O[C@H]2c2ccccc2Cl)cc1 (racemic) [Epoxiconazole, epoxiconazole]	2.5	8.0						
CCNc1nc(NC(C)C)nc(SC)n1 [Ametryn]	29.3	53.0						Solubility in acetophenone (1 week): 47.4 % w/w
N#Cc1c(Cl)c(Cl)c(Cl)c(C#N)c1Cl [Chlorothalonil, chlorothalonil]			lower					
CC(C)C1C2CCC1c1c(NC(=O)c3cn(C)nc3C(F)F)cccc12 (stereo not drawn) [Compound of FIG. 2, 3-difluoromethyl-1-methyl-1H-pyrazole-4-carboxylic acid(9-isopropyl-1,2,3,4-tetrahydro-1,4-methano-naphthalen-5-yl)-amide]			better	5.6 % w/w	14.1	32.1		
CN(C)C(=O)Nc1ccc(Cl)c(Cl)c1 [Diuron]				<0.2* % w/w	4.8	11.0		
N#Cc1c[nH]cc1-c1cccc2c1OC(F)(F)O2 [Fludioxynil]			better	0.3 % w/w	8.5	30.1		
CCCCC(O)(Cn1cncn1)c1ccc(Cl)cc1Cl (stereo not drawn) [Hexaconazole, hexaconazole]	4.4	18					better	Solubility in acetophenone (1 week): 11.7 % w/w
CCN(CC)C(=O)C(C)Oc1cccc2ccccc12 (stereo not drawn) [Napropamide, napropamide]							lower	Solubility in Solvesso 200ND: 20.7; Solubility in acetophenone: 27.6 % w/w; Solubility in dimethyl lactamide: 19.2 % w/w
CSc1nc(NC(C)C)nc(NC(C)C)n1 [Prometryn, prometryn]	12	43					better	Solubility in acetophenone (1 week): 19 % w/w
CNC(=O)c1cc(Cl)cc(C)c1NC(=O)c1cc(Br)nn1-c1ncccc1Cl [Rynaxypry]				0.06 % w/w	0.75	2.8		
CN1COCN(Cc2cnc(Cl)s2)/C1=N\[N+](=O)[O-] [Thiamethoxam, thiamethoxam]			better	0.2 % w/w	5.0	9.0		
CCO/N=C(\CC)C1=C(O)CC(c2c(C)cc(C)cc2C)CC1=O (stereo not drawn) [Tralkoxydim, tralkoxydim]							lower	Solubility in acetophenone: 12.7 % w/w; Solubility in dimethyl lactamide: 3.2 % w/w
